Laboratory results taken from US20140094424A1, “MICROBICIDAL COMPOSITIONS AND METHODS OF PRODUCTION USE THEREOF” (priority 2011, published 2014).

Assays:
Experiment in all cases: MBC (minimum bactericidal concentration) test in Wash NEXT reagent
Type in all cases: cell-based
[1] = tested on: Pseudomonas aeruginosa (L)
[2] = tested on: Pseudomonas aeruginosa (AY)
Pseudomonas putida (K) = tested on: Pseudomonas putida (K)
[3] = at 72 hours, listed as Na Azide

[N-]=[N+]=[N-] [Sodium Azide, sodium azide]
MBC test growth score ([1]; 10% preservative, 8 hour): +
MBC test growth score ([1]; 10% preservative, 24 hour): +
MBC test growth score ([1]; 10% preservative, 48 hour): +
MBC test growth score ([1]; 10% preservative, 72 hour): +
MBC test growth score ([1]; 20% preservative, 8 hour): +
MBC test growth score ([1]; 20% preservative, 24 hour): +
MBC test growth score ([1]; 20% preservative, 48 hour): +
MBC test growth score ([1]; 20% preservative, 72 hour): +
MBC test growth score ([1]; 30% preservative, 8 hour): +
MBC test growth score ([1]; 30% preservative, 24 hour): +
MBC test growth score ([1]; 30% preservative, 48 hour): +
MBC test growth score ([1]; 30% preservative, 72 hour): +
MBC test growth score ([1]; 40% preservative, 8 hour): +
MBC test growth score ([1]; 40% preservative, 24 hour): +
MBC test growth score ([1]; 40% preservative, 48 hour): +
MBC test growth score ([1]; 40% preservative, 72 hour): +
MBC test growth score ([1]; 50% preservative, 8 hour): +
MBC test growth score ([1]; 50% preservative, 24 hour): +
MBC test growth score ([1]; 50% preservative, 48 hour): +
MBC test growth score ([1]; 50% preservative, 72 hour): +
MBC test growth score ([1]; 60% preservative, 8 hour): +
MBC test growth score ([1]; 60% preservative, 24 hour): +
MBC test growth score ([1]; 60% preservative, 48 hour): +
MBC test growth score ([1]; 60% preservative, 72 hour): +
MBC test growth score ([1]; 70% preservative, 8 hour): +
MBC test growth score ([1]; 70% preservative, 24 hour): +
MBC test growth score ([1]; 70% preservative, 48 hour): +
MBC test growth score ([1]; 70% preservative, 72 hour): +
MBC test growth score ([1]; 80% preservative, 8 hour): +
MBC test growth score ([1]; 80% preservative, 24 hour): +
MBC test growth score ([1]; 80% preservative, 48 hour): +
MBC test growth score ([1]; 80% preservative, 72 hour): +
MBC test growth score ([1]; 90% preservative, 8 hour): +
MBC test growth score ([1]; 90% preservative, 24 hour): +
MBC test growth score ([1]; 90% preservative, 48 hour): +
MBC test growth score ([1]; 90% preservative, 72 hour): +
MBC test growth score ([1]; 100% preservative, 8 hour): +
MBC test growth score ([1]; 100% preservative, 24 hour): +
MBC test growth score ([1]; 100% preservative, 48 hour): +
MBC test growth score ([1]; 100% preservative, 72 hour): +
total kill at % preservative (MBC) [1, 3]: No kill @ 100%
MBC test growth score ([2]; 10% preservative, 8 hour): +
MBC test growth score ([2]; 10% preservative, 24 hour): +
MBC test growth score ([2]; 10% preservative, 48 hour): +
MBC test growth score ([2]; 10% preservative, 72 hour): +
MBC test growth score ([2]; 20% preservative, 8 hour): +
MBC test growth score ([2]; 20% preservative, 24 hour): +
MBC test growth score ([2]; 20% preservative, 48 hour): +
MBC test growth score ([2]; 20% preservative, 72 hour): +
MBC test growth score ([2]; 30% preservative, 8 hour): +
MBC test growth score ([2]; 30% preservative, 24 hour): +
MBC test growth score ([2]; 30% preservative, 48 hour): +
MBC test growth score ([2]; 30% preservative, 72 hour): +
MBC test growth score ([2]; 40% preservative, 8 hour): +
MBC test growth score ([2]; 40% preservative, 24 hour): +
MBC test growth score ([2]; 40% preservative, 48 hour): +
MBC test growth score ([2]; 40% preservative, 72 hour): +
MBC test growth score ([2]; 50% preservative, 8 hour): +
MBC test growth score ([2]; 50% preservative, 24 hour): +
MBC test growth score ([2]; 50% preservative, 48 hour): +
MBC test growth score ([2]; 50% preservative, 72 hour): +
MBC test growth score ([2]; 60% preservative, 8 hour): +
MBC test growth score ([2]; 60% preservative, 24 hour): +
MBC test growth score ([2]; 60% preservative, 48 hour): +
MBC test growth score ([2]; 60% preservative, 72 hour): +
MBC test growth score ([2]; 70% preservative, 8 hour): +
MBC test growth score ([2]; 70% preservative, 24 hour): +
MBC test growth score ([2]; 70% preservative, 48 hour): +
MBC test growth score ([2]; 70% preservative, 72 hour): +
MBC test growth score ([2]; 80% preservative, 8 hour): +
MBC test growth score ([2]; 80% preservative, 24 hour): +
MBC test growth score ([2]; 80% preservative, 48 hour): +
MBC test growth score ([2]; 80% preservative, 72 hour): +
MBC test growth score ([2]; 90% preservative, 8 hour): +
MBC test growth score ([2]; 90% preservative, 24 hour): +
MBC test growth score ([2]; 90% preservative, 48 hour): +
MBC test growth score ([2]; 90% preservative, 72 hour): +
MBC test growth score ([2]; 100% preservative, 8 hour): +
MBC test growth score ([2]; 100% preservative, 24 hour): +
MBC test growth score ([2]; 100% preservative, 48 hour): +
MBC test growth score ([2]; 100% preservative, 72 hour): +
total kill at % preservative (MBC) [2, 3]: No kill @ 100%
MBC test growth score (Pseudomonas putida (K); 10% preservative, 8 hour): +
MBC test growth score (Pseudomonas putida (K); 10% preservative, 24 hour): +
MBC test growth score (Pseudomonas putida (K); 10% preservative, 48 hour): +
MBC test growth score (Pseudomonas putida (K); 10% preservative, 72 hour): +
MBC test growth score (Pseudomonas putida (K); 20% preservative, 8 hour): +
MBC test growth score (Pseudomonas putida (K); 20% preservative, 24 hour): +
MBC test growth score (Pseudomonas putida (K); 20% preservative, 48 hour): +
MBC test growth score (Pseudomonas putida (K); 20% preservative, 72 hour): +
MBC test growth score (Pseudomonas putida (K); 30% preservative, 8 hour): +
MBC test growth score (Pseudomonas putida (K); 30% preservative, 24 hour): +
MBC test growth score (Pseudomonas putida (K); 30% preservative, 48 hour): +
MBC test growth score (Pseudomonas putida (K); 30% preservative, 72 hour): +
MBC test growth score (Pseudomonas putida (K); 40% preservative, 8 hour): +
MBC test growth score (Pseudomonas putida (K); 40% preservative, 24 hour): +
MBC test growth score (Pseudomonas putida (K); 40% preservative, 48 hour): +
MBC test growth score (Pseudomonas putida (K); 40% preservative, 72 hour): +
MBC test growth score (Pseudomonas putida (K); 50% preservative, 8 hour): +
MBC test growth score (Pseudomonas putida (K); 50% preservative, 24 hour): +
MBC test growth score (Pseudomonas putida (K); 50% preservative, 48 hour): +
MBC test growth score (Pseudomonas putida (K); 50% preservative, 72 hour): +
MBC test growth score (Pseudomonas putida (K); 60% preservative, 8 hour): +
MBC test growth score (Pseudomonas putida (K); 60% preservative, 24 hour): +
MBC test growth score (Pseudomonas putida (K); 60% preservative, 48 hour): +
MBC test growth score (Pseudomonas putida (K); 60% preservative, 72 hour): +
MBC test growth score (Pseudomonas putida (K); 70% preservative, 8 hour): +
MBC test growth score (Pseudomonas putida (K); 70% preservative, 24 hour): +
MBC test growth score (Pseudomonas putida (K); 70% preservative, 48 hour): +
MBC test growth score (Pseudomonas putida (K); 70% preservative, 72 hour): +
MBC test growth score (Pseudomonas putida (K); 80% preservative, 8 hour): +
MBC test growth score (Pseudomonas putida (K); 80% preservative, 24 hour): +
MBC test growth score (Pseudomonas putida (K); 80% preservative, 48 hour): +
MBC test growth score (Pseudomonas putida (K); 80% preservative, 72 hour): +
MBC test growth score (Pseudomonas putida (K); 90% preservative, 8 hour): +
MBC test growth score (Pseudomonas putida (K); 90% preservative, 24 hour): +
MBC test growth score (Pseudomonas putida (K); 90% preservative, 48 hour): +
MBC test growth score (Pseudomonas putida (K); 90% preservative, 72 hour): +
MBC test growth score (Pseudomonas putida (K); 100% preservative, 8 hour): +
MBC test growth score (Pseudomonas putida (K); 100% preservative, 24 hour): +
MBC test growth score (Pseudomonas putida (K); 100% preservative, 48 hour): +
MBC test growth score (Pseudomonas putida (K); 100% preservative, 72 hour): +
total kill at % preservative (MBC) (Pseudomonas putida (K); [3]): No kill @ 100%
